Measured values published in patent EP2518139A1, “Use of indirubin derivatives for producing pluripotent stem cells” (Universitätsklinikum Jena, priority 2011, dated 2012).

Experiments:
[1] = tested on: mono-, di- and poly-ubiquitins; assay: Immunoblot of ubiquitins in HeLa cells; type: cell-based, human; settings: BMP-stimulated HeLa, 24h; MG132 5µM, E738 (1µM)
Experimental: (§1) Western blot:: Cell extracts were homogenized in Urea-Lysis buffer (1mM EDTA,0.5% Triton X-100), 5mM NaF, 6M Urea, 1mM Na3VO4, 10µg/mL Pepstatin, 100µM PMSF and 3µg/mL Aprotinin in PBS). Enhanced chemiluminescence (ECL) Western blot analysis was performed. 20-40µg of total protein was resolved on 10% SDS-PAGE gels and immunoblotted with specific antibodies. Primary antibodies were incubated at a 1:1,000 dilution in TBS (pH 7.5) with 0.1% Tween-20 and 5% BSA/nonfat milk with gentle agitation overnight at 4°C. The proper secondary antibodies were incubated in TBS (pH 7.5) with 5% BSA/nonfat milk and 0.1 % Tween-20 at a 1:5,000 dilution for 1 h at room temperature.
Ubiquitin-proteasome degradation system is the major route to protein degradation. To identify if indirubin-induced degradation is conducted by proteasome, we utilized MG132, a general proteasome inhibitor, to characterize the role of proteasome in degradation. We found 5µM MG132 was sufficient to rescue the E738 mediated Smad1/5/8 […] 24h after treatment (Fig. 5E and 5F). […] Thus we interpreted that E738 might be able to promote degradation of polymerased ubiquintins through activating the formation of complexes with certain substrates, speculatively like Smad1/2/3/5/8, leading to accelerate the recycling of mono-ubiquitin, while MG132 blocked the degradation of these complexes and arrest such recycling. […]

[2] = tested on: BMP/TGFß downstream genes (ID1, ID2, CTGF, SnoN); assay: qRT-PCR of BMP/TGFß downstream genes in HeLa cells; type: cell-based, human; settings: E738 (1µM)
Experimental: RT-PCR: Total RNA was isolated with RNA isolation kit from Qiagen according to the manufacturer's instructions. cDNA was generated by reverse-transcription of equivalent quantities of RNA and Quantitative real-time PCR (QRT-PCR) was performed as described previously.
To evaluate the effect of indirubin on transcriptional activity, we focused on the BMP/Smad pathway and performed RT-PCR to measure the BMP/TGFß downstream genes expression regulated by E738 (Fig. 2E). […] As for ID2 only 50% was remained to be expressed. CTGF, a BMP antagonist and TGFß agonist (Abreu 2002 nature cell biology 4 599-607) and SnoN, a TGFß downstream gene were declined up to approximate 30% and 10% respectively.

[3] = tested on: HFF; assay: iPS-Colony formation and Alkaline phosphatases staining in HFF; type: cell-based, human; settings: E738 (0.5µM) 8 days, Alkaline phosphatases staining after 14 days E738 (1µM)
Experimental: Cell culture: HeLa and Hek293T were cultured in DMEM (PAA) containing 10% FCS (PAA) and 1% PS (PAA). HFF (human foreskin fibroblasts) were cultured in DMEM containing 15% FCS and 1%PS. Mouse embryonic fibroblasts were cultured in DMEM containing 10% NCS (LifeTechnologies) and 1% PS. The cells were maintained under 5% CO2 at 37°C in a humidified atmosphere. The cells were treated with various compounds as indicated in context. The images were taken at indicated time points using a Keyence digital-microskop BZ-800.
iPS-Colony formation and Alkaline phosphatases staining in HFF: 10^5 cells/well HFF at passage 4 were seeded in a 12-well plate in 15% FCS. Next day, the cells were treated with indicated concentrations of E738 without change of medium for indicated times. After the appearance of morphologic transition and stem cell like colony formation, alkaline phosphatase staining was performed using StemTAG Alkaline phosphatase staining kit (Biocat, Germany) according to the manufacturers protocol.

[4] = tested on: Smad1/5/8; assay: Immunoblot of p- and pan-Smad1/5/8 in NIH 3T3; type: cell-based, mouse; settings: NIH3T3, BMP2 (100ng/mL), 24h
Experimental: Cell culture: HeLa and C2C12 were cultured in DMEM containing 10% FCS and 1 % PS. HFF was cultured in DMEM containing 15% FCS and 1 %PS. NIH 3T3 was cultured in DMEM containing 10% NCS and 1% PS. The cells were maintained unter 5% CO2 at 37°C in a humidified atmosphere. After 24h preincuabtion in serum-free medium, the cells were treated with various compounds and proteins as indicated in context. Transfection of siRNA oligonuleotide against Smurf1 was reported by Zhu et al (Zhu et al., nature 2006) and synthesized by riboxx and performed using riboxx®FECT reagent according to the manufacturer's instructions. 24h after transfection, the cells were treated with BMP (100ng/mL) and Compound as indicated before lysis.
as §1, with “temperature. […]” for “temperature.”

`COc1ccc2c(c1)C(=C1Nc3ccccc3C1=NOCC(O)CO)C(=O)N2` (centres unmarked) [E738] was tested, and the “mono-, di- and poly-ubiquitins” value [1] was “more mono-ubiquitin, but less di- and poly-ubiquitins”, the ID2 expression ([2]; BMP2 (100ng/mL), 1 h after incubation) was “firstly silenced” and the ID2 expression ([2]; BMP2 (100ng/mL), 6h treatment) was “doubled again”. For the same molecule, the ID1 expression ([2]; BMP2 (100ng/mL), time course) was “constantly reduced”, the “CTGF expression, declined up to” value ([2]; BMP, 24h) was ~30% and the “ID2 remained to be expressed” value ([2]; BMP, 24h) was 50%. For the same molecule, the “SnoN expression, declined up to” value ([2]; BMP, 24h) was ~10%, the “expression of ID1” value ([2]; BMP, 24h) was “significantly repressed” and the “formation of ESC-like colony” value [3] was “induces the formation of ESC-like colony from HFF”. The “concentration sufficient to reduce Smad1/5/8” value [4] was 0.5 µM and the “p- and pan-Smad1/5/8” value ([4]; E738 0,5µM, 1µM and 5µM) was “decline of both”.
